Test results as given in paper PMC5281649 (European Journal of Nuclear Medicine and Molecular Imaging, 2016).
Read-outs that look alike come from different tables or passages of the source.

How the values were obtained:
[1] = Safety assessments in this PET study; assay type: in vivo, human
Procedure: The safety of sembragiline was assessed by monitoring vital signs, laboratory tests and adverse events (AEs), and by evaluating the risk of suicide using the Columbia Suicide Severity Rating Scale.

[2] = design: method as in PMID 22451094; settings: phase 1 and 2 studies, approximately 1040 subjects; cited from earlier work
brain MAO-B enzyme [3] = biological target: T1, brain MAO-B enzyme (Homo sapiens, UniProt P27338); assay: Plasma concentration–MAO-B enzyme inhibition relationship (simple Emax model); assay type: in vivo
T1 sequence (P27338 1-520): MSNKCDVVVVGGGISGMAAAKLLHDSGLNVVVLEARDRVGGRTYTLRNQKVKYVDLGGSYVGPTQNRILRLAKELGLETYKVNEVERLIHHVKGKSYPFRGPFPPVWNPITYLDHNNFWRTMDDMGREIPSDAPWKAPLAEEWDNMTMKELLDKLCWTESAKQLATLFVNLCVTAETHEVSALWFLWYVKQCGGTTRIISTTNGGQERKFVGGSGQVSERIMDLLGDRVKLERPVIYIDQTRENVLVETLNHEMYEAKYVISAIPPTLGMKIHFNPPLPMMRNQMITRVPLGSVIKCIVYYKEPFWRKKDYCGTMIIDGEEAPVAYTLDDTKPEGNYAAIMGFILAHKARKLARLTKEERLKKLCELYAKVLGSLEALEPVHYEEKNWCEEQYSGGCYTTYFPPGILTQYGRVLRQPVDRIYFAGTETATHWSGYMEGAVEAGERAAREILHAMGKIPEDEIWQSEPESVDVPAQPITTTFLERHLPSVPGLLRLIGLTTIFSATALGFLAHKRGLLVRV
Procedure: The PK/PD analysis was performed using Phoenix WinNonlin software version 6.2 (Pharsight Corporation, Mountain View, CA, USA).

brain MAO-B enzyme [4] = biological target: T1, brain MAO-B enzyme; settings: ref Roche data on file, cited from earlier work; for Brain MAO-B inhibition: young healthy subjects
MAO-A = tested on: MAO-A; design: method as in doi:10.1016/j.jalz.2013.05.1757; settings: MAO-B over MAO-A; cited from earlier work
[5] = Pre-PET sembragiline plasma concentration at steady state (LC-MS/MS); assay type: in vivo, human

Emax (maximum MAO-B occupancy) (brain MAO-B enzyme [3]; AD patients, frontal cortex, steady state, pre-scan plasma concentration): 81.1 (CV%: 3.2)
EC50 (brain MAO-B enzyme [3]; AD patients, frontal cortex, steady state, pre-scan plasma concentration, read-out: EC50 (plasma concentration at half-maximal occupancy) (converted)): 3.1 nM
Emax (maximum MAO-B occupancy) (brain MAO-B enzyme [3]; AD patients, hippocampus, steady state, pre-scan plasma concentration): 85.9 (CV%: 4.1)
EC50 (brain MAO-B enzyme [3]; AD patients, hippocampus, steady state, pre-scan plasma concentration, read-out: EC50 (plasma concentration at half-maximal occupancy) (converted)): 3.77 nM
Emax (maximum MAO-B occupancy) (brain MAO-B enzyme [3]; AD patients, striatum, steady state, pre-scan plasma concentration): 87.8 (CV%: 1.8)
EC50 (brain MAO-B enzyme [3]; AD patients, striatum, steady state, pre-scan plasma concentration, read-out: EC50 (plasma concentration at half-maximal occupancy) (converted)): 3.24 nM
Emax (maximum MAO-B occupancy) (brain MAO-B enzyme [3]; EC subjects, frontal cortex, steady state, pre-scan plasma concentration): 80.1 (CV%: 8.9)
EC50 (brain MAO-B enzyme [3]; EC subjects, frontal cortex, steady state, pre-scan plasma concentration, read-out: EC50 (plasma concentration at half-maximal occupancy) (converted)): 4.59 nM
Emax (maximum MAO-B occupancy) (brain MAO-B enzyme [3]; EC subjects, hippocampus, steady state, pre-scan plasma concentration): 89.1 (CV%: 9.6)
EC50 (brain MAO-B enzyme [3]; EC subjects, hippocampus, steady state, pre-scan plasma concentration, read-out: EC50 (plasma concentration at half-maximal occupancy) (converted)): 5.99 nM
Emax (maximum MAO-B occupancy) (brain MAO-B enzyme [3]; EC subjects, striatum, steady state, pre-scan plasma concentration): 88.8 (CV%: 7.5)
EC50 (brain MAO-B enzyme [3]; EC subjects, striatum, steady state, pre-scan plasma concentration, read-out: EC50 (plasma concentration at half-maximal occupancy) (converted)): 4.88 nM
Estimated Emax of MAO-B inhibition (brain MAO-B enzyme [3]; across ROIs and for both populations, steady state): 80–89%
EC50 (brain MAO-B enzyme [3]; across ROIs and for both populations, steady state, read-out: Estimated EC50 (plasma concentration)): 2.92 to 5.84 nM
Emax (brain MAO-B enzyme [3]; across ROIs and for both populations, steady state, read-out: Estimated Emax of MAO-B inhibition): 80 to 90%
Sembragiline concentration needed for near-complete MAO-B inhibition in the brain (brain MAO-B enzyme [3]; regardless of the population): around 20 ng/mL
Plasma concentration at which the plateau in MAO-B inhibition occurred (brain MAO-B enzyme [3]; steady state, AD patients and EC subjects): 20 to 50 ng/mL
Pre-PET sembragiline plasma concentration at steady state, mean ([5]; AD patients, 1 mg q.d. for 14 days, N 3): 41.9 ng/mL
Pre-PET sembragiline plasma concentration at steady state, mean ([5]; AD patients, 5 mg loading day 1 then 0.1 mg q.d. Day 2–15, N 2): 2.55 ng/mL
Pre-PET sembragiline plasma concentration at steady state, mean ([5]; AD patients, 5 mg loading day 1 then 0.2 mg q.d. Day 2–7, N 3): 7.06 ng/mL
Pre-PET sembragiline plasma concentration at steady state, mean ([5]; AD patients, 5 mg q.d. for 6–9 days, N 2): 96.7 ng/mL
Pre-PET sembragiline plasma concentration at steady state, mean ([5]; EC subjects, 1 mg q.d. for 14 days, N 3): 33.9 ng/mL
Pre-PET sembragiline plasma concentration at steady state, mean ([5]; EC subjects, 5 mg loading day 1 then 0.2 mg q.d. Day 2–7, N 3): 3.29 ng/mL
Structure (SMILES): CC(=O)N[C@H]1CC(=O)N(c2ccc(OCc3cccc(F)c3)cc2)C1 [sembragiline]
AEs reported as drug-related ([1]; 16 treated subjects (AD and EC)): 11 of 20
Changes in laboratory parameters, vital signs or ECG measurements ([1]; AD patients and EC subjects): no clinically significant changes
Tolerability ([1]; AD patients and EC subjects, 0.1–5 mg daily for 6–15 days): well tolerated
Safety and tolerability [2]: safe and well tolerated
Brain penetration (brain MAO-B enzyme [4]; healthy young men, PET imaging): crosses the blood–brain barrier
Brain MAO-B inhibition (brain MAO-B enzyme [4]; 5 mg daily for 2–10 days, cortical regions): 52–78%
Brain MAO-B inhibition (brain MAO-B enzyme [4]; 5 mg daily for 2–10 days, subcortical regions): 73–87%
Brain MAO-B inhibition (brain MAO-B enzyme [4]; 15 mg, cortical regions): 68–74%
Brain MAO-B inhibition (brain MAO-B enzyme [4]; 15 mg, subcortical regions): 83–86%
Potency in inhibiting MAO-B relative to MAO-A (MAO-A): approximately 600 fold
